# Results as given in PMC6930659, “Antiprotozoal Activity of Turkish Origanum onites Essential Oil and Its Components” (Molecules, 2019).
# Where two headings read alike, the source gives them in different places.
# Columns and labels:
# [1] = test system: Trypanosoma brucei rhodesiense STIB 900; assay: In vitro assay for Trypanosoma brucei rhodesiense (resazurin); type: cell-based; conditions: Trypanosoma brucei, 72 h, STIB 900 blood stream forms, 72 h; means of two independent determinations ± deviation from the mean; read-out: IC50 Trypanosoma brucei rhodesiense
# Procedure: Trypanosoma brucei rhodesiense STIB 900 strain, isolated in 1982 from a human patient in Tanzania and, after several mouse passages, cloned and adapted to axenic culture conditions, was used in this assay. Minimum essential medium (50 μL) supplemented with 25 mM HEPES, 1 g/L additional glucose, 1% MEM non-essential amino acids (100×), 0.2 mM 2-mercaptoethanol, 1 mM Na-pyruvate, and 15% heat inactivated horse serum was added to each well of a 96 well microtiter plate. Serial drug dilutions of seven 3-fold dilution steps covering a range from 90 to 0.123 μg/mL were prepared, and then 4 × 10^4 blood stream forms of T. b. rhodesiense STIB 900 in 50 μL were added to each well and the plate was incubated at 37 °C under a 5% CO2 atmosphere for 72 h. Resazurin solution (resazurin, 12.5 mg in 100 mL double-distilled water) (10 μL) was then added to each well and incubated for a further 2–4 h. At the end of the assay, the plates were read with a Spectramax Gemini XS microplate fluorometer (Molecular Devices Cooperation, Sunnyvale, CA, USA) using an excitation wavelength of 536 nm and an emission wavelength of 588 nm. Data were analyzed using the microplate reader software Softmax Pro (Molecular Devices Cooperation, Sunnyvale, CA, USA). Melarsoprol was used as standard drug.
# [2] = test system: T. cruzi Tulahuen strain C2C4; assay: In vitro assay for Trypanosoma cruzi in L-6 cells (β-galactosidase/CPRG); type: cell-based; conditions: Trypanosoma cruzi, L6; Tulahuen C2C4 in L-6 cells, 96 h; highest concentration tested 90 μg/mL; means of two determinations ± deviation
# Procedure: Rat skeletal myoblasts (L-6 cells) were seeded in 96 well microtiter plates (2000 cells/well) in 100 μL RPMI 1640 medium with 10% FBS and 2 mM L-glutamine for 24 h. After that, the medium was removed and replaced by 100 μL per well containing 5000 trypomastigote forms of T. cruzi Tulahuen strain C2C4, containing the β-galactosidase (Lac Z) gene. The medium was removed from the wells after 48 h, and replaced with 100 μL fresh medium with or without a serial drug dilution of seven 3-fold dilution steps covering a range from 90 to 0.123 μg/mL. After 96 h of incubation, the plates were inspected under an inverted microscope to assure growth of the controls and sterility, after which the substrate CPRG/Nonidet ([…]) was added to all wells. A color reaction developed within 2–6 h and could be read photometrically at 540 nm. Data were transferred into the graphic program Softmax Pro (Molecular Devices Cooperation, Sunnyvale, CA, USA) and the IC50 values were calculated from the sigmoidal dose response curves. Benznidazole was the reference drug.
# [3] = test system: L. donovani (strain MHOM/ET/67/L82) amastigotes; assay: In vitro assay for Leishmania donovani axenic amastigotes (resazurin); type: cell-based; conditions: axenic amastigotes, 72 h, means of two determinations ± deviation, read-out: IC50 Leishmania donovani
# Procedure: Amastigotes of L. donovani (strain MHOM/ET/67/L82) were grown in axenic culture at 37 °C in SM medium at pH 5.4 supplemented with 10% heat-inactivated FBS under an atmosphere of 5% CO2. Culture medium (100 μL) with 10^5 amastigotes from axenic culture with or without a serial drug dilution was seeded in 96 well microtiter plates. Serial drug was prepared covering a range of dilutions from 90 to 0.123 μg/mL. After 72 h of incubation, the plates were inspected under an inverted microscope to assure growth of the controls and sterile conditions. Subsequently, 10 μL resazurin solution (12.5 mg resazurin dissolved in 100 mL double-distilled water) was added to each well and the plates were incubated for another 2 h. The plates were then read with a Spectramax Gemini XS microplate fluorometer (Molecular Devices Cooperation, Sunnyvale, CA, USA) using an excitation wavelength of 536 nm and an emission wavelength of 588 nm. Data were analyzed using the software Softmax Pro (Molecular Devices Cooperation, Sunnyvale, CA, USA). A decrease of fluorescence (=inhibition) was expressed as percentage of the fluorescence of control cultures and plotted against the drug concentrations. From the sigmoidal inhibition curves, the IC50 values were calculated. Miltefosine was used as a reference drug.
# P. falciparum K1 strain = assay: In vitro assay for Plasmodium falciparum ([3H]-hypoxanthine incorporation); type: cell-based; conditions: K1 strain (chloroquine- and pyrimethamine-resistant), erythrocytic stages, means of two determinations ± deviation, read-out: IC50 Plasmodium falciparum
# Procedure: Activity against the erythrocytic stages of P. falciparum was determined using an in vitro modified [^3H]-hypoxanthine incorporation assay, using the chloroquine- and pyrimethamine-resistant K1 strain [68]. Compounds were dissolved in DMSO at 10 mg/mL and further diluted in medium before added to parasite cultures incubated in RPMI 1640 medium without hypoxanthine, supplemented with HEPES (5.94 g/l), NaHCO3 (2.1 g/L), neomycin (100 U/mL), AlbumaxR (5 g/L), and washed human red cells A+ at 2.5% haematocrit (0.3% parasitaemia). Serial drug dilutions of seven 3-fold dilution steps covering a range from 90 to 0.123 μg/mL were prepared. The 96 well plates were incubated in a humidified atmosphere at 37 °C; 4% CO2, 3% O2, 93% N2. After 48 h 50 μL of ^3H-hypoxanthine (=0.5 μCi) was added to each well of the plate. The plates were incubated for a further 24 h under the same conditions. The plates were then harvested with a Betaplate™ cell harvester (Wallac, Zurich, Switzerland), and the red blood cells transferred onto a glass fiber filter then washed with distilled water. The dried filters were inserted into a plastic foil with 10 mL of scintillation fluid, and counted in a Betaplate™ liquid scintillation counter (Wallac, Zurich, Switzerland). […] IC50 values were calculated from the sigmoidal inhibition curves using Microsoft Excel. Chloroquine was used as positive control drug.
# [4] = In vitro assay for cytotoxicity on mammalian cells (resazurin); type: cell-based, rat
# Procedure: (§1) Assays were performed in 96 well microtiter plates (4 × 10^4 L6 cells/well), each well containing 100 μL of RPMI 1640 medium supplemented with 1% L-glutamine (200 mM) and 10% FBS. L6 cells are a primary cell line derived from rat skeletal myoblasts. Serial drug dilutions of seven 3-fold dilution steps covering a range from 90 to 0.123 μg/mL were prepared. After 72 h of incubation, the plates were inspected under an inverted microscope to assure growth of the controls and sterile conditions. Resazurin solution (10 μL) (12.5 mg resazurin in 100 mL double-distilled water) was then added to each well and the plates incubated for another 2 h. The plates were then read with a Spectramax Gemini XS microplate fluorometer (Molecular Devices Cooperation, Sunnyvale, CA, USA) using an excitation wavelength of 536 nm and an emission wavelength of 588 nm. Data were analyzed using the microplate reader software Softmax Pro (Molecular Devices Cooperation, Sunnyvale, CA, USA). From the sigmoidal inhibition curves, the IC50 values were calculated. Podophyllotoxin was the positive control.
# T. brucei brucei STIB795 = assay: In vivo trypanocidal activity, T. brucei brucei STIB795 mouse model; parameters: species or system Trypanosoma brucei brucei; conditions: 5.0 mg/kg × 4 days i.p., NMRI mice; for Mean Survival: untreated control 5.25 days
# Procedure: In vivo efficacy studies in mice were conducted at the Swiss Tropical and Public Health Institute (Basel) (License number 2813) according to the rules and regulations for the protection of animal rights (“Tierschutzverordnung”) of the Swiss “Bundesamt für Veterinärwesen”. They were approved by the veterinary office of Canton Basel-Stadt, Switzerland. Groups of four female NMRI mice weighing 20 to 25 g were infected i.p. on Day 0 (d0) with 10^5 bloodstream forms of T. brucei brucei STIB 795, which is a derivative of strain 427. Compounds were formulated in 100% DMSO diluted 10-fold in distilled water. Mice were treated on four consecutive days (d3 to d6 post-infection) with the Origanum onites oil, as well as carvacrol and thymol, at 100 mg/kg by the i.p. route. One group served as untreated controls, and two other groups were treated with the standard drugs pentamidine (5 mg/kg for 4 days) and melarsoprol (2 mg/kg for 4 days), respectively. The levels of parasitemia of the mice were checked by microscopic examination of tail blood on Day 7 and thereafter twice a week until Day 30 post infection. Mice were considered cured when there was no parasitaemia relapse detected in the tail blood over the 30 day observation period. The day of relapse and surviving days were recorded.
# [5] = test system: T. brucei bloodstream forms; parameters: method as in PMID 10865458; conditions: cited from earlier work
# L6 cells = assay: In vitro assay for cytotoxicity on mammalian cells (resazurin); type: cell-based, rat; conditions: rat
# Procedure: as §1
# [6] = L6 cells (rat skeletal myoblasts), rat skeletal myoblasts, 72 h, means of two determinations ± deviation, read-out: IC50 Cytotoxicity L6 cells
Structure (SMILES),IC50 [1] [µg/mL],IC50 [2] [µg/mL],IC50 [3] [µg/mL],IC50 (P. falciparum K1 strain) [µg/mL],"IC50 at 72 h [4, 6] [µg/mL]",IC50 at 72 h ([4]; rat) [µg/mL],Cured/Infected (T. brucei brucei STIB795),Mean Survival (T. brucei brucei STIB795) [days],Mean Survival (T. brucei brucei STIB795; listed as pentamidine),ED50 T. brucei bloodstream forms [5] [µg/mL],selectivity to the parasite than to the human cell line [5] [fold],fold higher cytotoxicity on L6 cells than thymol (L6 cells) [fold]
CC1(C)C2CCC1(C)C(O)C2 (stereo not drawn) [Borneol],24.3 ± 11.8,> 90,52.1 ± 16.6,> 20,> 90,–,–,–,–,–,–,–
COc1cc(C(C)C)ccc1C [Carvacrol Methyl Ether],17 ± 22,> 90,17.5 ± 1.7,> 20,–,> 90,–,–,–,–,–,–
C=C[C@](C)(O)CCC=C(C)C [L-Linalool],3.6 ± 2.5,> 90,86.3 ± 2.8,> 20,–,> 90,–,–,–,–,–,–
C=CC(=C)CCC=C(C)C [Myrcene],22 ± 14.8,> 90,48.2 ± 12.7,> 20,> 90,–,–,–,–,–,–,–
"N=C(N)c1ccc(OCCCCCOc2ccc(C(=N)N)cc2)cc1 [Pentamidine, reference compound]",–,–,–,–,–,–,4/4,>30,over 30 days,–,–,–
CC1=CCC(O)(C(C)C)CC1 (stereo not drawn) [Terpinen-4-ol],0.66 ± 0.4,46.8 ± 7.4,68.7 ± 14.2,> 20,43.3 ± 16.5,–,–,–,–,0.02,1000,–
COc1cc(C)ccc1C(C)C [Thymol Methyl Ether],4.1 ± 1.97,> 90,86 ± 1.9,> 20,–,> 90,–,–,–,–,–,–
CC1=CC(=O)C(C(C)C)=CC1=O [Thymoquinone],0.11 ± 0.02,18.2 ± 4.3,1.7 ± 0.16,2.6 ± 0.16,20.5 ± 8.1,–,–,–,–,–,–,2.5
"O=C(Cn1ccnc1[N+](=O)[O-])NCc1ccccc1 [benznidazole, reference compound]",–,0.44,–,–,–,–,–,–,–,–,–,–
